Laboratory results: patent publication US20240018146A1, “COMPOSITIONS AND METHODS OF USING THE SAME FOR TREATMENT OF NEURODEGENERATIVE AND MITOCHONDRIAL DISEASE” (MITOKININ, INC., priority 2020, published 2024)
Values after ≈ are worked out from the molar mass of the structure shown. Like-named read-outs stand apart in the source and are kept apart here.

Legend:
HeLa MKYP cells [1] = test: Human mitophagy assay (HeLa mKeima assay, FACS); format: cell-based
How it was run: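 Mitophagy, read by FACS as the share of cells showing the lysosomal mtKeima emission shift, followed 6 h of 1 uM FCCP/oligomycin stimulation. Before that, HeLa MKYP cells spent 16 h with compound over a concentration range.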

HeLa MKYP cells [2] = test: Cell death measured by DAPI staining, with 1 μM FCCP/oligomycin or no toxin (no FO); format: cell-based
How it was run: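 Cell death was read by DAPI staining after 6–6.5 h compound exposure in HeLa MKYP cells, either with 1 μM FCCP/oligomycin or without toxin. H2O2 served as the cell-death control.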

Kinetic solubility = format: physicochemical
[3] = Mitotoxicity / Mitotox safety margin (therapeutic window); format: cell-based
pS129 α-syn = test: Preformed fibril (PFF) model in primary neuron culture, pS129 α-syn; format: cell-based; conditions: increasing doses
Experimental: 4. Preformed Fibril Model
Mouse and human alpha-synuclein monomers have been sourced commercially, then pre-formed fibrils have been generated as per the detailed protocol provided by the MJFF. For in vitro experiments primary hippocampal neurons isolated from P0 pups were grown for 7 days after which PFFs at 5 ug/ml were introduced Pre-formed fibrils will be introduced via stereotactic injection into the striatum of wt (C57BL/6J, Jax #000664) and transgenic A53T mice (B6;C3-Tg(Prnp-SNCA*A53T)83Vle/J, Jax #004479). Cohorts of drug-treated (oral gavage) and untreated animals will then be allowed to age for up to 6 months, at which point they will be sacrificed and perfused. Brains will be removed and fixed, then sectioned for analysis. We anticipate that untreated A53T animals will show significant spreading of aggregated alpha-synuclein pathology and pS129 staining, as well as some possible neurodegeneration; wt animals are also expected to show pS129 synuclein staining and synuclein aggregation, albeit less than that seen in the A53T background.

[4] = Inspection of crystallization and round cells; format: physicochemical; parameters: key: 1=yes crystals; 0=no crystals
Experimental: 5. Inspection of Crystallization and Round Cells
Briefly, the Hela MKYP (Mito-Keima/YFP-Parkin) cells were seeded at 10K cells/well. EP/MTK compounds were added at seeding (cells were still in suspension). The cells were incubated with the EP/MTK compounds for 16 hours, then 1 μM FCCP/oligomycin was added for 6 hours. Prior to harvesting, cells were scored by eye under 20× magnification for the presence or absence of crystalline or aggregated compound, or round cells.

[5] = Homo sapiens, HeLa, read-out: Mitophagy induction EC50
[6] = Homo sapiens, HeLa, HeLa mKeima assay, read-out: Mitophagy EC50 (HeLa mKeima assay)
[7] = read-out: Mitophagy induction EC50

Compound	EC50 (HeLa MKYP cells [1]; [5]) [nM]	Max cell death at 25 μM compound, 1 uM FO (%) (HeLa MKYP cells [2]; 25 μM compound)	Cell death at 25 μM (no FO) (%) (HeLa MKYP cells [2]; 25 μM compound, no FO)	Highest safe dose (cytotoxicity; no FO; safe means DAPI+ <20%) (HeLa MKYP cells [2]; no FO) [µM]	Max % death with 1 μM FO (HeLa MKYP cells [2]; with 1 μM FO) [%]	solubility kinetic (Kinetic solubility) [µM]	Mito-Safety Index (highest safe dose/EC50) [3]	Highest safe dose (μM) (mitotox or cytotox) [3] [µM]	pS129 α-syn (250-12) in primary neuron culture (pS129 α-syn)	pS129 α-syn (monomer) in primary neuron culture (pS129 α-syn)	pS129 α-syn in primary neuron culture (pS129 α-syn)	EC50 (HeLa MKYP cells [1]; [6]) [nM]	other results
COC1CCN([C@H]2CCc3ccccc3[C@@H]2Nc2ncnc3[nH]c(C(F)(F)F)cc23)CC1 [EP-0038282]	> 25000	97.5	66.6	2.8	97.5	134 (≈ 59.7 µg/mL)							Mitophagy EC50 (HeLa mKeima assay) (μM) (HeLa MKYP cells [1]; HeLa mKeima assay): Minimal
CO[C@@H]1CCN([C@H]2COc3ccccc3[C@@H]2Nc2ncnc3[nH]c(C(F)(F)F)cc23)C1 [EP-0041161]	50			25.0	8.5		75.49	3.4	reduces	reduces	reduces		
FC(F)(F)c1cc2c(N[C@H]3c4ccccc4CC[C@@H]3N3CC4(COC4)C3)ncnc2[nH]1 [EP-0038249]	> 25000	37.3	3.69	25.0	37.3	157 (≈ 67.4 µg/mL)						2730	
FC(F)(F)c1cc2c(N[C@H]3c4ccccc4CC[C@@H]3N3CCCCC3)ncnc2[nH]1 (single isomer, unassigned) [EP-0038392]	> 25000	23.2	3.1	25.0	23.2	187 (≈ 77.7 µg/mL)						2770	
c1ccc2c(c1)OC[C@H](C1CCOCC1)[C@H]2Nc1ncnc2[nH]c(C3CC3)cc12 (single isomer, unassigned) [EP-0040587]	90			25.0	21.5		230.81	21.5	reduces	reduces	reduces		
FC(F)(F)c1cc2c(N[C@@H]3c4ccccc4CC[C@H]3N3C[C@H]4COC[C@H]4C3)ncnc2[nH]1 (single isomer, unassigned) [EP-0038583]	60	39.5	6.03	25.0	18.1	1.56 (≈ 0.692 µg/mL)	158.93	9.1				70	Mitotox safety margin (Therapeutic window) [3]: + (+ = <10)
FC(F)(F)c1cc2c(N[C@@H]3c4ccccc4CC[C@H]3N3CCOCC3)ncnc2[nH]1 (single isomer, unassigned) [EP-0038099]		13.7	4.11			14.1 (≈ 5.89 µg/mL)							E102 max mitophagy, fold over DMSO (HeLa MKYP cells [1]; 1 μM FCCP/oligomycin): 7.78 fold over DMSO; Mitophagy EC50 (HeLa mKeima assay) (μM) (HeLa MKYP cells [1]; HeLa mKeima assay): Minimal; E101 lowest effective dose (HeLa MKYP cells [1]; mitophagy, 1 μM FCCP/oligomycin): 25.00 µM; E105 death at 8.3 μM (no FO) (HeLa MKYP cells [2]; 8.3 μM compound, no FO): 2.41; E104 death at 25 μM (no FO) (HeLa MKYP cells [2]; 25 μM compound, no FO): 4.11; E103 max death with 1 μM FO (HeLa MKYP cells [2]; with 1 μM FO): 13.71
COC1CN([C@@H]2COc3ccccc3[C@H]2Nc2ncnc3[nH]c(C(F)(F)F)cc23)C1 [EP-0040850]	240			25.0	10.3		88.53	21.4	reduces	reduces	reduces		
Fc1ccc2c(c1)OC[C@H](N1C[C@@H]3COC[C@H]3C1)[C@H]2Nc1ncnc2[nH]c(C3CC3)cc12 (single isomer, unassigned) [EP-0040874]				25.0	14.4		94.72	13.9	reduces	reduces	reduces		EC50 (HeLa MKYP cells [1]; [7]): 150 nM
FC1(F)CCN([C@H]2CCc3ccccc3[C@@H]2Nc2ncnc3[nH]c(C(F)(F)F)cc23)CC1 (single isomer, unassigned) [EP-0038393]	> 25000	17.6	1.98	25.0	17.6	1 (≈ 0.451 µg/mL)						2430	
FC(F)(F)c1cc2c(N[C@H]3c4ccccc4CC[C@@H]3N3C4CCC3COC4)ncnc2[nH]1 [EP-0038283]	> 25000	98	9.6	8.3	98.0	1 (≈ 0.443 µg/mL)							Mitophagy EC50 (HeLa mKeima assay) (μM) (HeLa MKYP cells [1]; HeLa mKeima assay): Minimal
C[C@H]1CN([C@H]2CCc3ccccc3[C@@H]2Nc2ncnc3[nH]c(C(F)(F)F)cc23)CCO1 (single isomer, unassigned) [EP-0040503]	130			25.0	7.4		69.05	9.1	reduces	reduces	reduces		
CN(CC1CCOCC1)[C@H]1CCc2ccccc2[C@@H]1Nc1ncnc2[nH]c(C(F)(F)F)cc12 [EP-0038394]	> 25000	61	11.4	8.3	61.0	7.05 (≈ 3.24 µg/mL)						8260	
O=C1COCCN1[C@H]1CCc2ccccc2[C@@H]1Nc1ncnc2[nH]c(C(F)(F)F)cc12 (single isomer, unassigned) [EP-0038378]	> 25000	15.4	4.55	25.0	15.4	3.02 (≈ 1.3 µg/mL)						2770	
c1ccc2c(c1)CC[C@H](N1CCOCC1)[C@H]2Nc1ncnc2[nH]cnc12 [EP-0039678]		2.27	1.77			164 (≈ 57.5 µg/mL)							Mitophagy EC50 (HeLa mKeima assay) (μM) (HeLa MKYP cells [1]; HeLa mKeima assay): Minimal
COC1CN([C@H]2CCc3ccccc3[C@@H]2Nc2ncnc3[nH]c(C(F)(F)F)cc23)C1 [EP-0040857]				25.0	17.0		116.38	18.7	reduces	reduces	reduces		EC50 (HeLa MKYP cells [1]; [7]): 160 nM
c1coc(CNc2ncnc3[nH]cnc23)c1 [Kinetin, kinetin, reference compound]													visual inspection of crystallization ([4]; 0.1 μM compound): 0; visual inspection of crystallization ([4]; 0.3 μM compound): 0; visual inspection of crystallization ([4]; 0.9 μM compound): 0; visual inspection of crystallization ([4]; 2.8 μM compound): 0; visual inspection of crystallization ([4]; 8.3 μM compound): 0; visual inspection of crystallization ([4]; 25.0 μM compound, HeLa MKYP culture, 20× magnification): 0
